From US8653022B2, “Use of ghrelin splice variant for treating hypercholesterolemia and/or high cholesterol and/or high cholesterol complication and/or lipemia and/or lipemia complication and/or coronary heart disease and/or weight management and/or diabetes and/or hyperglycemia” (priority 2006, dated 2014)
Ends that are not written are not given here. * marks the point of attachment. Octanoyl = CCCCCCCC(=O)*

Assays:
[1] = Serum cholesterol and lipid levels (cholesterol, triglycerides, LDL, HDL) after subcutaneous administration in 129Sv mice; assay type: in vivo; settings: 129Sv male mice, subcutaneous once daily, n=10 per group; for Reduced levels of cholesterol (serum cholesterol concentration): compared to vehicle-administered controls
Excerpt: FIG. 1A is a bar graph showing serum cholesterol concentration after subcutaneous administration of acylated ghrelin splice variant (acylated SEQ ID NO:2) or un-acylated ghrelin splice variant (SEQ ID NO:2) compared to SEQ ID NO:3 and vehicle-administered controls in 129Sv mice. Reduced levels of cholesterol in the acylated ghrelin splice variant (acylated SEQ ID NO:2) and un-acylated ghrelin splice variant (SEQ ID NO:2) treated groups were observed (5% & 6%, respectively).
(§1) Acylated ghrelin splice variant (20 μg; 29 amino acids in length (SEQ ID NO:2)) or the Vehicle (1.6% mannitol) was administered once daily for 14 successive days, via the subcutaneous (SC) route, to groups comprising n=10 129Sv male mice. No mortality occurred in any of the animals throughout the entire study period. […] All animals were subjected to terminal bleeding, under CO2 anesthesia, immediately prior to euthanasia. Terminal blood collection was performed serially as per animal number, and not as per group. • Hematology: Blood samples (at least 100 μl) were collected into pre-labeled EDTA coated tubes. The tubes were pre-labeled and contain the following information:
Study number, group number, animal number and date. The samples were kept until delivery and analysis at 2-8 ° C. Hematology parameters that were tested using Sysmex KX-21™are: WBC, RBC, HGB, HCT, MCV, MCH, MCHC, Platelets. Differential count was preformed manually. • Biochemistry: Blood for biochemistry analysis was collected into non-coated pre-labeled tubes. The tubes were pre-labeled and contained the following information: Study number, group number, animal number and date. Following clotting, the blood from each animal was centrifuged, and the serum was collected into two pre-labeled tubes and submitted for analysis as follows: Serum, 250 μl, was kept at 2-8° C. until analysis. The samples were subjected to the following listed tests using Hitachi 917 system: Creatinine, Total bilirubin, Glucose, Triglycerides, Cholesterol, HDL, LDL, Total protein, Globulin, Albumin, Urea, Potassium, Phosphorus, Calcium, Sodium, Chloride, sGOT, SGPT, ALP. • Urinalysis: Urine was collected into pre-labeled tubes (as above) from all animals (where possible) prior to and/or after euthanasia. For all surviving animals, urine collection was performed serially as per animal number, and not as per group. An attempt was made to attain the maximal amount as possible to perform the tests listed below. Urinalysis is performed using a commercial test stick (Bayer, Multistix® 10SG) applied to urine sample and evaluating the following parameters: glucose, ketone, pH value, leukocytes, blood, density, nitrite, bilirubin, urobilinogen and protein. • Necropsy Procedures and Macroscopic Examination: All animals were subjected to a fully detailed necropsy. For all surviving animals, necropsy was performed serially as per animal number, and not as per group, immediately following the scheduled terminal bleeding. At necropsy, a thorough examination is made and any abnormality or gross pathological changes in tissues and/or organs are observed and recorded. • Organ/Tissue Collection: The organs and tissues listed (Brain, Liver, Kidney, Stomach, Pancreas, Lungs, Spleen, Heart, Epididymal WAT, Retroperitoneal WAT, Interscapular BAT) were excised and weighed wet as soon as possible after excision and removal of the attached fat and other connective tissues. All organs from one animal were collected into one container, pre-labeled with the following information: Study number, group number, animal number and date. • Results: Reduced levels of cholesterol in the acylated ghrelin splice variant and un-acylated ghrelin splice variant treated groups were observed (5% & 6%, respectively; See FIG. 1A). Reduced levels of HDL in the acylated ghrelin splice variant and un-acylated ghrelin splice variant treated groups (5% & 6%, respectively; see FIG. 1B).

[2] = Plasma glucose level after 7 day treatment in 129Sv mice; assay type: in vivo; settings: 129 male mice, 7.2 mg/kg peptide, end of study
Excerpt: FIG. 3A is a bar graph showing percentage of plasma glucose reduction after 7 day treatment with acylated ghrelin splice variant peptides (acylated SEQ ID NO:2, SEQ ID NO:3 and SEQ ID NO:4) or ghrelin in 129Sv mice. The percent reduction is 3.2%; 2% and 4.8% respectively while treatment with ghrelin increased plasma glucose level by 1.3%.
FIG. 3B is a bar graph showing plasma glucose levels after 7 day treatment with acylated ghrelin splice variant peptides (acylated SEQ ID NO:2, SEQ ID NO:3 and SEQ ID NO:4) or ghrelin. 129 male mice were treated for seven days with 7.2 mg/kg peptide. Plasma glucose levels were measured at the end of the study.

[3] = Cumulative body weight gain after once-daily subcutaneous treatment in 129Sv mice; assay type: in vivo; settings: male wild-type 129Sv mice, once daily for seven days, 72 mg/kg subcutaneously, n=8 per group
Protocol: FIG. 2 is a line graph showing cumulative body weight gain of un-acylated ghrelin splice variant-treated (SEQ ID NO:2) 129Sv mice compared to vehicle-treated controls. Un-acylated ghrelin splice variant reduces body weight gain in male wild-type mice (n=8 per group). In mice treated once daily for seven days with un-acylated ghrelin splice variant (72 mg/kg, subcutaneously), cumulative weight gain of the SEQ ID NO:2 group was 25% times less than the vehicle-injected control animals.

[4] = Mortality and clinical signs during subcutaneous administration study; assay type: in vivo, 129Sv mice; settings: 20 μg once daily for 14 successive days, 129Sv male mice, n=10
Protocol: as §1, with “information: […]” for “information:”

With “GSS (CO-C7H15) FLSPEHQRVQVRPPHKAPH (GSS(Octanoyl)FLSPEHQRVQVRPPHKAPH; listed as Homo sapiens) [SEQ ID NO:3, 22 amino acid human ghrelin splice variant, acylated]” the “Increased levels of triglycerides” value ([1]; compared to vehicle) was 15% and the “Percentage of plasma glucose reduction” value [2] was 2%.

For “GSSFLSPEHQRVQVRPPHKAPHVV (also: acylated (site not given here); listed as Homo sapiens) [SEQ ID NO:4, acylated 24 amino acid human ghrelin splice variant]”, the “Percentage of plasma glucose reduction” value [2] was 4.8%.

With “GSSFLSPEHQRVQVRPPHKAPHVVPALPL (listed as Homo sapiens) [un-acylated ghrelin splice variant, 29 amino acid human ghrelin splice variant, un-acylated]” the “Level of triglycerides (in words)” value ([1]; compared to vehicle) was “remained unchanged”, the “Reduced levels of HDL” value ([1]; compared to vehicle) was 6% and the “Reduced levels of cholesterol (serum cholesterol concentration)” value [1] was 6%. For the same substance, the “Cumulative weight gain less than the vehicle-injected control animals” value [3] was 25%.

In the case of “GSSFLSPEHQRVQVRPPHKAPHVVPALPL (not fully specified; listed as Homo sapiens) [acylated SEQ ID NO:2, 29 amino acid human ghrelin splice variant, acylated]”, the “Increased levels of triglycerides” value ([1]; compared to vehicle) is reported as 9%, the “LDL levels (in words)” value ([1]; compared to vehicle) is reported as “remained unchanged” and the “Reduced levels of HDL” value ([1]; compared to vehicle, listed as acylated ghrelin splice variant) is reported as 5%. For the same substance, the “Reduced levels of cholesterol (serum cholesterol concentration)” value ([1]; listed as acylated ghrelin splice variant) was 5%, the “Percentage of plasma glucose reduction” value [2] was 3.2% and the Clinical signs [4] was “No clinical signs”. For the same substance, the Mortality [4] was “No mortality”.

With “ghrelin: polypeptide of GenBank NP_057446; mature 28 amino acid peptide bearing n-octanoyl on the third serine (GSS(Octanoyl)FLSPEHQRVQQRKESKKPPAKLQPR; UniProt Q9UBU3 24-51, looked up) [reference compound]” the “Increase of plasma glucose level” value [2] was 1.3%.
